According to article PMC7914897, “Cytotoxic Potential of a-Azepano- and 3-Amino-3,4-SeCo-Triterpenoids” (International Journal of Molecular Sciences, 2021):

What was measured:
[1] = tested on: A549/ATCC (NSC lung cancer); test: NCI-60 screen (SRB, 48 h); details: Homo sapiens; for GI50: A549
[2] = tested on: NCI-H23 (NSC lung cancer); test: NCI-60 screen (SRB, 48 h); details: Homo sapiens; for GI50: NCI-H23; for IC (TGI): NCI-H23, 48 h, read-out: TGI
[3] = tested on: SF-539 (CNS cancer); test: NCI-60 screen (SRB, 48 h); details: Homo sapiens; for GI50: SF-539; for IC (TGI): SF-539, 48 h, read-out: TGI
[4] = tested on: CNS cancer subpanel; test: NCI-60 screen, subpanel; details: Homo sapiens; for IC (TGI): 48 h, read-out: TGI MG_MID; for GI50: read-out: GI50 MG_MID
[5] = tested on: SF-268 (CNS cancer); test: NCI-60 screen (SRB, 48 h); details: Homo sapiens; for GI50: SF-268
[6] = tested on: LOX IMVI (Melanoma); test: NCI-60 screen (SRB, 48 h); type: cell-based; details: Homo sapiens; for GI50: read-out: GI50
[7] = tested on: M14 (Melanoma); test: NCI-60 screen (SRB, 48 h); details: for GI50: M14; for IC (TGI): M14, 48 h, read-out: TGI
[8] = tested on: SK-MEL-28 (Melanoma); test: NCI-60 screen (SRB, 48 h); details: Homo sapiens; for GI50: SK-MEL-28; for IC (TGI): SK-MEL-28, 48 h, read-out: TGI
[9] = tested on: CAKI-1 (Renal cancer); test: NCI-60 screen (SRB, 48 h); details: Homo sapiens; for GI50: CAKI-1
[10] = tested on: Breast cancer subpanel; test: NCI-60 screen, subpanel; details: Homo sapiens; for IC (TGI): 48 h, read-out: TGI MG_MID; for GI50: read-out: GI50 MG_MID; for CC50: read-out: LC50 MG_MID
[11] = tested on: OVCAR-5 (Ovarian cancer); test: NCI-60 screen (SRB, 48 h); details: Homo sapiens; for GI50: OVCAR-5
[12] = tested on: NSC lung cancer subpanel; test: NCI-60 screen, subpanel; details: Homo sapiens; for IC (TGI): 48 h, read-out: TGI MG_MID; for GI50: read-out: GI50 MG_MID; for CC50: read-out: LC50 MG_MID
[13] = tested on: NCI-H460 (NSC lung cancer); test: NCI-60 screen (SRB, 48 h); details: Homo sapiens; for GI50: NCI-H460; for IC (TGI): NCI-H460, 48 h, read-out: TGI
[14] = tested on: A375 (malignant melanoma); test: SRB cytotoxicity assay, 72 h; type: cell-based, human; details: Homo sapiens, A-375, 72 h, A375, 72 h, cut-off 30 µM; read-out: EC50
Experimental: (§1) The cytotoxicity of compounds 1–20 was evaluated by means of a colorimetric sulforhodamine B (SRB) assay. For all compounds, the EC50 values were determined for the human tumor cell lines A375 (malignant melanoma), HT29 (colorectal carcinoma), MCF-7 (breast carcinoma), A2780 (ovarian carcinoma), FaDu (hypopharyngeal carcinoma), and NIH 3T3 (non-malignant mouse fibroblasts).
(§2) In short, exponentially growing cells were seeded into 96-well plates on day 0 at the appropriate cell densities to prevent confluence of the cells during the period of experiment. After 24 h, the cells were treated with serial dilutions of the compounds (0–30 µM) for 72 h. The final concentration of DMSO never exceeded 0.5%, which was non-toxic to the cells. After a 72 h treatment, the supernatant medium from the 96-well plates was discarded, and the cells were fixed with 10% TCA. For a thorough fixation, the plates were allowed to rest at 4 °C. After fixation, the cells were washed in a strip washer. The washing was done four times with water using alternate dispensing and aspiration procedures. The plates were then dyed with 100 µL of 0.4% SRB for about 20 min. After dying, the plates were washed with 1% acetic acid to remove the excess of the dye and allowed to air-dry overnight. Tris base solution (200 µL, 10 mM) was added to each well and absorbance was measured at λ = 570 nm (using a 96 well plate reader, Tecan Spectra, Crailsheim, Germany). The percentages of surviving cells relative to untreated controls were determined.

[15] = tested on: MCF-7 (breast carcinoma); test: SRB cytotoxicity assay, 72 h; type: cell-based, human; details: Homo sapiens, MCF7; MCF-7, 72 h, cut-off 30 µM; read-out: EC50
Experimental: as §1, §2

[16] = tested on: FaDu (hypopharyngeal carcinoma); test: SRB cytotoxicity assay, 72 h; type: cell-based, human; details: Homo sapiens, cut-off 30 µM, read-out: EC50
Experimental: as §1, §2

[17] = tested on: HT29 (colorectal carcinoma); test: SRB cytotoxicity assay, 72 h; type: cell-based, human; details: Homo sapiens, HT-29; HT29, 72 h, cut-off 30 µM; read-out: EC50
Experimental: as §1, §2

[18] = tested on: A2780 (ovarian carcinoma); test: SRB cytotoxicity assay, 72 h; type: cell-based, human; details: Homo sapiens; A2780, 72 h, cut-off 30 µM; read-out: EC50
Experimental: as §1, §2

[19] = tested on: SK-MEL-2 (Melanoma); test: NCI-60 screen (SRB, 48 h); details: Homo sapiens; for GI50: SK-MEL-2; for IC (TGI): SK-MEL-2, 48 h, read-out: TGI; for CC50: SK-MEL-2, read-out: LC50
[20] = tested on: Ovarian Cancer subpanel; test: NCI-60 screen, subpanel; details: Homo sapiens; for IC (TGI): 48 h, read-out: TGI MG_MID; for GI50: read-out: GI50 MG_MID
[21] = tested on: NCI-H522 (NSC lung cancer); test: NCI-60 screen (SRB, 48 h); details: Homo sapiens; for GI50: NCI-H522; for IC (TGI): NCI-H522, 48 h, read-out: TGI
[22] = tested on: SF-295 (CNS cancer); test: NCI-60 screen (SRB, 48 h); details: Homo sapiens; for GI50: SF-295; for IC (TGI): SF-295, 48 h, read-out: TGI
[23] = tested on: RXF 393 (Renal cancer); test: NCI-60 screen (SRB, 48 h); details: Homo sapiens

SMILES: C[C@H]1[C@H](C)CC[C@]2(C(=O)Nc3ccc4ncccc4c3)CC[C@]3(C)C(=CC[C@@H]4[C@@]5(C)CCCNC(C)(C)[C@@H]5CC[C@]43C)[C@H]12 [Compound 14]
- GI50 [1]: 1.81 µM
- GI50 [2]: 1.76 µM
- IC (TGI) [2]: 3.39 µM
- GI50 [3]: 1.61 µM
- IC (TGI) [3]: 3.01 µM
- IC (TGI) [4]: 3.17 µM
- GI50 [4]: 1.67 µM
- GI50 [5]: 1.73 µM
- GI50 [6]: 1.78 µM
- GI50 ([7]; Homo sapiens): 1.94 µM
- IC (TGI) ([7]; Homo sapiens): 3.59 µM
- CC50 ([7]; Homo sapiens, M14, read-out: LC50): 6.65 µM
- Growth % of the Most Sensitive Cell Lines ([7]; M14, 1 dose 10 µM): −92.02%
- GI50 [8]: 1.66 µM
- IC (TGI) [8]: 3.11 µM
- GI50 [9]: 1.56 µM
- IC (TGI) [10]: 3.44 µM
- GI50 [10]: 1.76 µM
- CC50 [10]: 6.87 µM
- GI50 [11]: 1.68 µM
- IC (TGI) [12]: 3.36 µM
- GI50 [12]: 1.78 µM
- CC50 [12]: 7.53 µM
- GI50 [13]: 1.94 µM
- IC (TGI) [13]: 3.82 µM
- CC50 ([13]; NCI-H460, read-out: LC50): 7.53 µM
- EC50 [14]: 1.57 ± 0.8 µM
- EC50 [15]: 1.64 ± 0.1 µM
- EC50 [16]: 1.79 ± 0.2 µM
- EC50 [17]: 1.55 ± 0.1 µM
- EC50 [18]: 1.8 ± 0.1 µM
- GI50 [19]: 1.84 µM
- IC (TGI) [19]: 3.43 µM
- CC50 [19]: 6.42 µM
- IC (TGI) [20]: 3.3 µM
- GI50 [20]: 1.77 µM
- CC50 ([20]; read-out: LC50 MG_MID): 6.69 µM
- GI50 [21]: 1.75 µM
- IC (TGI) [21]: 3.33 µM
- GI50 [22]: 1.65 µM
- IC (TGI) [22]: 3.17 µM

SMILES: C=C(C)[C@@H]1CC[C@]2(C(=O)N[C@H](CO)Cc3ccccc3)CC[C@]3(C)[C@H](CC[C@@H]4[C@@]5(C)CCCNC(C)(C)[C@@H]5CC[C@]43C)[C@@H]12 [Compound 11]
- GI50 [1]: 0.96 µM
- IC (TGI) ([1]; A549, 48 h, read-out: TGI): 2.45 µM
- GI50 [2]: 1.6 µM
- IC (TGI) [2]: 3.17 µM
- GI50 [3]: 1.73 µM
- IC (TGI) [3]: 3.19 µM
- IC (TGI) [4]: 3.08 µM
- GI50 [4]: 1.51 µM
- CC50 ([4]; read-out: LC50 MG_MID): 5.72 µM
- GI50 [5]: 1.56 µM
- IC (TGI) ([5]; SF-268, 48 h, read-out: TGI): 3.39 µM
- GI50 ([23]; RXF 393): 1.67 µM
- IC (TGI) ([23]; RXF 393, 48 h, read-out: TGI): 3.27 µM
- IC (TGI) ([6]; 48 h): 2.42 µM
- GI50 [6]: 1.07 µM
- GI50 ([7]; Homo sapiens): 0.74 µM
- IC (TGI) ([7]; Homo sapiens): 2.19 µM
- GI50 [8]: 1.55 µM
- IC (TGI) [8]: 3.03 µM
- GI50 [9]: 1.49 µM
- IC (TGI) ([9]; CAKI-1, 48 h, read-out: TGI): 2.89 µM
- CC50 ([9]; CAKI-1, read-out: LC50): 5.6 µM
- IC (TGI) [10]: 3.16 µM
- GI50 [10]: 1.41 µM
- CC50 [10]: 6.01 µM
- GI50 [11]: 1.69 µM
- IC (TGI) ([11]; OVCAR-5, 48 h, read-out: TGI): 3.18 µM
- IC (TGI) [12]: 3.15 µM
- GI50 [12]: 1.52 µM
- CC50 [12]: 6.41 µM
- GI50 [13]: 1.21 µM
- IC (TGI) [13]: 2.77 µM
- EC50 [14]: 1 ± 0.1 µM
- EC50 [15]: 1.17 ± 0.2 µM
- EC50 [16]: 0.88 ± 0.1 µM
- EC50 [17]: 1.02 ± 0.03 µM
- EC50 [18]: 0.78 ± 0.4 µM
- GI50 [19]: 1.72 µM
- IC (TGI) [19]: 3.18 µM
- CC50 [19]: 5.87 µM
- IC (TGI) [20]: 2.62 µM
- GI50 [20]: 1.2 µM
- GI50 [21]: 1.75 µM
- IC (TGI) [21]: 3.35 µM
- CC50 ([21]; NCI-H522, read-out: LC50): 6.4 µM
- GI50 [22]: 1.67 µM
- IC (TGI) [22]: 3.21 µM
